Data as given in US9023762B2, “Plant growth regulator compositions, methods of preparation and use thereof” (Valent BioSciences Corporation, priority 2011, dated 2015).

How the values were obtained:
[1] = tested on: Tomato (variety: Rutgers) plants; experiment: Tomato transpiration inhibition study (foliar application); assay type: in vivo; settings: for Transpiration rate (% of control) Average of 3 days after treatment: foliarly applied to tomato leaves; for S-(+)-Abscisic acid doses to achieve 50% inhibition of transpiration / S-(+)-Abscisic acid dose to achieve 50% inhibition of transpiration: foliar, first 3 days after treatment; for S-(+)-Abscisic acid dose to achieve 50% inhibition of transpiration: log-linear regression; for Relative potency: transpiration inhibition
Excerpt: Efficacy of the preferred composition of the present invention was studied with tomato plants to compare its transpiration inhibition effect against 10% potassium salt of S-(+)-Abscisic acid solution (ABA salt) and technical grade active ingredient of the free acid (S-(+)-Abscisic acid). Tomato (variety: Rutgers) seeds were sown in an 18-cell flat filled with Promix PGX (available from Premier Horticulture Inc. Quakertown, Pa.) for four weeks for germination and initial growth. Plants were then transplanted into pots (18 cm in diameter and 18 cm in height) filled with Promix BX (available from Premier Horticulture Inc. Quakertown, Pa.) and grown for another 5 days before treatment. During growing periods, plants received daily irrigation and weekly fertilizer (1 g/L all purpose fertilizer 20-20-20, The Scotts Company, Marysville, Ohio). S-(+)-Abscisic acid solutions of different, formulations were foliar applied to tomato plant leaves at the rate of 24 mL/6 plants. Plants were then placed in a transparent chamber with humidity controlled at relative humidity 40 to 60%. Leaf transpiration rate was measured 1, 2, 3 or 4 and 7 days after treatment using an AP4 Leaf Porometer (Dynamax, Inc., Houston, Tex.). The transpiration rate of each treatment was calculated as the percentage of that of control at each day to reduce day-to-day variation caused by changes of environmental condition such as light intensity and temperature. The log-linear regression between S-(+)-Abscisic acid doses and the average transpiration rates of first 3 days after treatment was used for calculation of S-(+)-Abscisic acid dose to achieve 50% inhibition of transpiration.

Pansy plants = experiment: Pansy shelf life extension study (sprench application); assay type: in vivo; settings: for Days of extended shelf life / S-(+)-Abscisic acid dose (mg) to extend 1 day of shelf life / S-(+)-Abscisic acid dose (mg) to extend 2 days of shelf life: drench and foliar applied; for S-(+)-Abscisic acid dose to extend 1 day shelf life: drench/foliar applied; for S-(+)-Abscisic acid dose (mg) to extend 1 day of shelf life / S-(+)-Abscisic acid dose (mg) to extend 2 days of shelf life: log-linear regression
Excerpt: Efficacy of the preferred composition of the present invention was also studied with Pansy plants to compare its shelf life extension effect against 10% potassium salt of S-(+)-Abscisic acid solution (ABA salt) and technical grade active ingredient of the free acid (S-(+)-Abscisic acid).
Pansy plants were obtained from local retailers as mature plants. Pansy plants were then transplanted into an 18-cell flat filled with Promix BX (available from Premier Horticulture Inc. Quakertown, Pa.) and grown for 3 days prior to treatment.
Uniform plants were selected for the study. Prior to S-(+)-Abscisic acid treatment, plants were saturated with water and then drained for about two hours. A total of 20 mL S-(+)-Abscisic acid solution, which is equivalent to about 10% of the cell volume, was applied to each plant by soil drench/foliar spray application. In the ornamental industry, this method of chemical application is commonly known as a sprench application. In this study, 17 mL solution was drench applied to root zone and 3 mL solution was foliar applied to canopy. Plants were not watered following the S-(+)-Abscisic acid treatment.
After the S-(+)-Abscisic acid treatment, plants were arranged in a randomized complete block experimental design. The plants were rated daily for the extent of wilting on a scale from 1 for no wilting to 4 for complete wilting. A rating of 2.5 was the point at which a plant was determined to be unmarketable and the previous day was recorded as the shelf life of that plant in days. The log-linear regression between S-(+)-Abscisic acid doses and the extension of shelf life over control plants was used for calculation of S-(+)-Abscisic acid dose to extend 1 day or 2 days of shelf life.

canola seed = experiment: Canola emergence after seed treatment (S-ABA as ammonium salt solution, 6-benzyladenine technical powder); assay type: in vivo; settings: for Final emergence (%) / Qrange / T50: 6-BA 0 g/cwt
Experimental: In this example, the effect of the cytokinin 6-benzyladenine on S-(+)-Abscisic acid induced germination delay on Canola was studied. The experiment was set up as an S-(+)-Abscisic acid-dose×BA-dose factorial experiment, with four doses of S-(+)-Abscisic acid (0, 25, 50, and 100 g/cwt) and four doses of 6-benzyladenine (0, 1, 5 and 25 g/cwt) for a total of 16 treatment combinations. The treatments were made up in 1 ml samples of experimental aqueous seed treatment slurry. S-(+)-Abscisic acid was added in the form of a water solution of the ammonium salt. 6-Benzyladenine was added as technical powder. Ten μl Tween® 20 were added to each sample to help wet and suspend the 6-benzyladenine powder. All of the seed treatment slurry samples contained CP-Clear film-forming agent and Color Coat Red (available from Becker Underwood), each at 1 oz/cwt, and 0.167 oz/cwt Maxim XL fungicide (available from Syngenta). The slurry application volume was 40 oz/cwt (cwt means per 100 lbs or 45.4 kgs of seed). Ten gram samples of canola seed were treated with the experimental slurries using a Hege 11 seed treater with a six-inch bowl.
The seed was planted in plastic boxes containing 1 kg of typical agricultural slit loam. One hundred seeds were planted 2 cm deep in each plastic box, and the soil in the box was adjusted to 21% soil moisture (wet-weight basis). Two replications of the experiment were incubated under constant light in a 10° C. chamber. The soil temperature averaged 12.6° C. The boxes were watered up to the correct weight every 1-2 days, and checked for emergence. Counts of seedlings were continued until it became clear that emergence had ceased (28 days). The final count of emerged seedlings was expressed as a percentage of the 100 seeds planted.
The daily counts were converted to proportions of the final emergence of the box, and a Gompertz curve was fitted to the data from each box using SAS Proc NLIN. From the parameters of the model, median emergence time (T50) and quartile range (Qrange) were estimated for each box. Analysis of variance was performed and means calculated for each of the three responses (Final emergence, T50, Qrange).

[2] = cited from earlier work
[3] = relative to S-(+)-Abscisic acid salt = 1
[4] = relative to S-(+)-Abscisic acid = 1

CC1=CC(=O)CC(C)(C)[C@@]1(O)/C=C/C(C)=C\C(=O)[O-].[K+] [S-(+)-Abscisic acid salt]
Transpiration rate (% of control) Average of 3 days after treatment ([1]; ABA dose 1 mg): 70 % of control
Transpiration rate (% of control) Average of 3 days after treatment ([1]; ABA dose 3 mg): 60 % of control
Transpiration rate (% of control) Average of 3 days after treatment ([1]; ABA dose 10 mg): 50 % of control
S-(+)-Abscisic acid doses to achieve 50% inhibition of transpiration [1]: 10.13 mg/plant
S-(+)-Abscisic acid dose to achieve 50% inhibition of transpiration [1]: 10.13 mg
Relative potency [1, 3]: 1
Days of extended shelf life (Pansy plants; ABA dose 1 mg): 0.50 days
Days of extended shelf life (Pansy plants; ABA dose 3 mg): 1.17 days
Days of extended shelf life (Pansy plants; ABA dose 10 mg): 1.50 days
Days of extended shelf life (Pansy plants; ABA dose 30 mg): 1.83 days
S-(+)-Abscisic acid dose to extend 1 day shelf life (Pansy plants): 2.83 mg/plant
S-(+)-Abscisic acid dose (mg) to extend 1 day of shelf life (Pansy plants): 2.83 mg
S-(+)-Abscisic acid dose (mg) to extend 2 days of shelf life (Pansy plants): 39.83 mg
Relative potency (1 day) (Pansy plants; [3]): 1
Relative potency (2 days) (Pansy plants; [3]): 1

CC1=CC(=O)CC(C)(C)[C@@]1(O)/C=C/C(C)=C\C(=O)O [S-(+)-Abscisic acid]
Transpiration rate (% of control) Average of 3 days after treatment ([1]; ABA dose 1 mg): 73 % of control
Transpiration rate (% of control) Average of 3 days after treatment ([1]; ABA dose 3 mg): 63 % of control
Transpiration rate (% of control) Average of 3 days after treatment ([1]; ABA dose 10 mg): 54 % of control
S-(+)-Abscisic acid doses to achieve 50% inhibition of transpiration [1]: 15.02 mg/plant
S-(+)-Abscisic acid dose to achieve 50% inhibition of transpiration [1]: 15.02 mg
Relative potency [1, 4]: 1
Days of extended shelf life (Pansy plants; ABA dose 1 mg): 0 days
Days of extended shelf life (Pansy plants; ABA dose 3 mg): 0.67 days
Days of extended shelf life (Pansy plants; ABA dose 10 mg): 0.83 days
Days of extended shelf life (Pansy plants; ABA dose 30 mg): 1.67 days
S-(+)-Abscisic acid dose to extend 1 day shelf life (Pansy plants): 8.68 mg/plant
S-(+)-Abscisic acid dose (mg) to extend 1 day of shelf life (Pansy plants): 8.68 mg
S-(+)-Abscisic acid dose (mg) to extend 2 days of shelf life (Pansy plants): 79.62 mg
Relative potency (2 days) (Pansy plants; [4]): 1
final emergence in words (canola seed; S-(+)-Abscisic acid dose of 100 g/cwt): roughly cut in half
Final emergence (%) (canola seed; S-ABA 25 g/cwt): 92.3%
Qrange (canola seed; S-ABA 25 g/cwt): 3.26 days
T50 (canola seed; S-ABA 25 g/cwt): 9.15 days
Final emergence (%) (canola seed; S-ABA 50 g/cwt): 68.9%
Qrange (canola seed; S-ABA 50 g/cwt): 4.27 days
T50 (canola seed; S-ABA 50 g/cwt): 11.20 days
Final emergence (%) (canola seed; S-ABA 100 g/cwt): 53.5%
Qrange (canola seed; S-ABA 100 g/cwt): 4.27 days
T50 (canola seed; S-ABA 100 g/cwt): 12.74 days
highest concentration that can be achieved in pure water ([2]; pure water at room temperature): about 3000 ppm
solubility limit in the tank-mix ([2]; tank-mix): up to 3000 ppm
